In general, melting point refers to the temperature of the solid-liquid transition. Take `CNC(=O)c1ccc(Oc2ccc(NC(=O)Nc3ccc(Cl)c(C(F)(F)F)c3)cc2)cn1` [Entry 56, N-(4-chloro-3-(trifluoromethyl)phenyl)-N′-(4-(2-(N-methylcarbamoyl)-5-pyridyloxy)phenyl) urea]: the melting point was in the range of 238 to 245 °C.

`CNC(=O)c1cc(Oc2ccc(NC(=O)Nc3ccc(Oc4ccnc(C(=O)NC)c4)cc3)cc2)ccn1` [Entry 103, bis(4-(2-(N-methylcarbamoyl)-4-pyridyloxy)phenyl) urea]: the melting point was in the range of 125 to 130 °C.

The record behind these values is patent US7928239B2, “Inhibition of RAF kinase using quinolyl, isoquinolyl or pyridyl ureas” (Bayer Healthcare LLC, priority 1999, dated 2011).
